Results: patent publication US10823738B2, “Methods for breast cancer treatment” (George Mason University, priority 2015, dated 2020)

Assays:
breast cancer = test: Bayesian analysis (MCMC simulation on I-SPY 2 data) of the predicted probability of Phase III success; type: in vivo, human
Excerpt: Adaptive design trials are constructed on the basis of assigning patients to certain signature groups such as signature biomarker groups, the goal being to determine predictive probabilities of success in Phase III trials for various targeted therapeutics. In essence, the design trials provide data that facilitates the determination of which patient biomarker signatures respond to various regimens. A regimen would “graduate” from trial if probability of statistical significance in Phase III reaches 85% for any signature, provided that a minimum of 60 patients have been assigned to the regimen. Neratinib was one of 7 agents tested in the experimental arms of the ISPY-2 TRIAL to date.
Bayesian analysis was completed using the MCMC simulation based on I-SPY 2 data with the following model: pCR˜HR+HER2+biomarker+treatment+treatment*HR+treatment*HER2+treatment*biomarker. No multiple comparison adjustments were applied. The Bayesian analytical engine developed by Don Berry (Yee et al J Clin Oncol. 2012 Dec. 20; 30(36):4584-6), is a mathematical approach that evaluates the clinical performance of a drug (in this case, neratinib) in both the treatment arm (in this case tumor shrinkage estimates by size changes observed by MRI), coupled with complete pathological response (pCR) as measured as the final response determinant, and the response of the predicate therapy in the control arm. This evaluation determined success of a given therapy for a Phase III trial, and in this case, it was determined that phosphorylation of EGFR at Y1173 was not only statistically significant at predicting or assessing response to neratinib in all patients regardless of hormone receptor levels and HER2 levels (HER2+, HER2− and HR+ and HR−), but when patients with high levels of phosphorylated EGFR (Y1173) were added to the HR−/HER2+ subgroup, the prevalence of ‘biomarker-positive’ patients increased by 50%, while increasing the predicted probability of Phase III success to 90%. […]

HER2− breast cancer = test: I-SPY 2 TRIAL: pCR response of breast cancer patients treated with veliparib; type: in vivo, human
Excerpt: Currently, treatment of Stage II/III breast cancer involves neoadjuvant treatment (pre-surgical) with drug regimens that may include therapies targeting specific molecular defects. Disclosed herein are novel methods for treatment of breast cancer comprising identifying biomarkers that predict response to therapeutic agents used in the pre-surgical stage of treatment of cancer. Subjects providing samples (pre-treatment biopsies) for studies described herein were characterized based on measurement of estrogen/hormone receptor (HR) and HER2 (c-erbB2), and were described by HER2−/HR−. HER2+/HR+. HER2+/HR−, HER2−/HR+ phenotypes. Response to treatment was determined by the amount of tumor shrinkage and a lack of appreciable tumor evident at surgery. […] This microarray allows for quantitative measurement of the amount of proteins and/or phosphorylated proteins in the tumor or cancerous cells from pretreatment sample, for example from biopsy specimens of women with Stage II/III breast cancer. […]
This example tested the hypothesis that the response to the PARP inhibitor, veliparib, was predicted by specific biomarkers. […] Various proteins were evaluated as biomarkers of veliparib response using reverse phase protein microarray (RPMA) data from pre-treatment laser capture microdissection (LCM) purified tumor epithelium. […]

SMILES	Phase III success (predicted probability) (breast cancer; EGFR Y1173 used as a single marker, all patients) [%]	Phase III success (predicted probability) (breast cancer; HER2+/HR− status as measured by immunohistochemical methods) [%]	predicted probability of Phase III success (breast cancer; patients with high levels of phosphorylated EGFR (Y1173) added to the HR−/HER2+ subgroup) [%]	clinical response (HER2− breast cancer; HER2−/HR− subtype)	complete pathological response (pCR) (HER2− breast cancer; women with both HR+ and HR− tumors)
CCOc1cc2ncc(C#N)c(Nc3ccc(OCc4ccccn4)c(Cl)c3)c2cc1NC(=O)/C=C/CN(C)C [neratinib]	93	87	90		
C[C@]1(c2nc3c(C(N)=O)cccc3[nH]2)CCCN1 [veliparib]				statistically significant clinical response	pCR was observed
